Marks after values point to notes of the source that are not given here.
Experiments:
Assay type in all cases: binding
human A2BAR (hA2BAR) = target: T1, human A2BAR (hA2BAR) (Homo sapiens, UniProt P29275); assay: Single-point radioligand displacement, [3H]PSB-603; conditions: 1 μM probe; CHO-spap cell membranes; co-incubated with radioligand 30 min at 25 °C; mean of two experiments
T1 construct: expressed in transfected cells; host or cells: CHO-spap cells (CHO-spap-hA2BAR), gift of S.J. Dowell, GlaxoSmithKline; membrane fractions
T1 sequence (P29275 1-332): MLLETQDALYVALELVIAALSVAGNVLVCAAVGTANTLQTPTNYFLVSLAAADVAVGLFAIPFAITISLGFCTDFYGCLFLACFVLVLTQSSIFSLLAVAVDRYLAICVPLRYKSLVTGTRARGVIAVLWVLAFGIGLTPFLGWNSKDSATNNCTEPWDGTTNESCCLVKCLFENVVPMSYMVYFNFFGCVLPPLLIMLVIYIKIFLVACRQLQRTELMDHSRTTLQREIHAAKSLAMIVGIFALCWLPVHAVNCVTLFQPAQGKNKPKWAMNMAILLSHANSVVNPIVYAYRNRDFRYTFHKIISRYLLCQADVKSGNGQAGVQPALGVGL
Description: (§1) Membrane aliquots containing 15 μg (CHOhA3AR), 5 μg (CHOhA1AR), or 30 μg (HEK293hA2AAR and CHO-spap-A2BAR) of protein were resuspended in assay buffer (A3AR: 50 mM Tris–HCl, pH 8.0, 10 mM MgCl2, 1 mM EDTA, 0.01% CHAPS; A1AR and A2AAR: 50 mM Tris–HCl, pH 7.4; A2BAR: 50 mM Tris–HCl, pH 7.4, 0.1% CHAPS). […] Nonspecific binding was determined in the presence of 100 μM NECA (A3AR), 100 μM CPA (A1AR), 100 μM NECA (A2AAR), and 10 μM ZM241385 (A2BAR). Incubations were terminated by rapid vacuum filtration to separate the bound and free radioligand through prewetted 96-well GF/C filter plates using a PerkinElmer Filtermate harvester. Filters were subsequently washed 12 times with ice-cold wash buffer (A3AR: 50 mM Tris–HCl, pH 8.0, 10 mM MgCl2, 1 mM EDTA; A1AR and A2AAR: 50 mM Tris–HCl, pH 7.4; A2BAR: 50 mM Tris–HCl, pH 7.4, 0.1% BSA). The plates were dried at 55 °C, and MicroscintTM-20 cocktail (PerkinElmer) was added subsequently.
(§2) Single point displacement values shown are mean percentages of two individual experiments performed in duplicate. All pKi values shown are mean values ± SEM of three individual experiments performed in duplicate.

human A2AAR (hA2AAR) = target: T2, human A2AAR (hA2AAR) (Homo sapiens, UniProt P29274); assay: Single-point radioligand displacement, [3H]ZM241385; conditions: 1 μM probe; HEK293 cell membranes; co-incubated with radioligand 30 min at 25 °C; mean of two experiments
T2 construct: expressed in transfected cells; host or cells: HEK293 cells (HEKhA2AAR), gift of Dr. J. Wang, Biogen; membrane fractions
Description: as §1, §2

hA3AR [1] = target: T3, hA3AR (Homo sapiens, UniProt P0DMS8); assay: Full curve radioligand displacement assay on the adenosine A3 receptor, [3H]PSB-11; conditions: mean ± SEM, n=3; for apparent pKi (pre-0 h) / apparent pKi (pre-4 h): CHO-hA3AR membranes, 25 °C; for apparent pKi (pre-0 h): 0.5 h co-incubation of probe and radioligand, no pre-incubation; for apparent pKi (pre-4 h): 4 h pre-incubation with probe then 0.5 h co-incubation with radioligand; for fold change, ratio Ki(0 h)/Ki(4 h): hA3AR
T3 construct: expressed in transfected cells; host or cells: CHO cells (CHOhA3AR), gift of Prof; K.N. Klotz, University of Würzburg; used as membrane fractions or live cells
T3 sequence (P0DMS8 1-318): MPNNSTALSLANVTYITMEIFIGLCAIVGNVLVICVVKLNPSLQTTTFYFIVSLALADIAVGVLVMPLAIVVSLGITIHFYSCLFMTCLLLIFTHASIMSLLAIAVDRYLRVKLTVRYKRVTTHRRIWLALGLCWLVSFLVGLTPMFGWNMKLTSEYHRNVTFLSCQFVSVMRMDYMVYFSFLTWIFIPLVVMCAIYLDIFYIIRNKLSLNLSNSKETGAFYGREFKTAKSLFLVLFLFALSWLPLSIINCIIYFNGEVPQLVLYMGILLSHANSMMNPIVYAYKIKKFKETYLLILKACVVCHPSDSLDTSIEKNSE
Description: Membrane aliquots containing 15 μg of protein (CHOhA3AR) were resuspended in assay buffer (50 mM Tris–HCl, pH 8.0, 10 mM MgCl2, 1 mM EDTA, 0.01% CHAPS). The competing ligand (concentrations ranging from 0.1 to 1000 nM) was added and pre-incubated with the membrane fractions for either 0 or 4 h. The radioligand (10 nM [^3H]PSB-11) was then added and incubated with the samples in a total volume of 100 μL of assay buffer for 30 min at 25 °C. Nonspecific binding was determined in the presence of 100 μM NECA. Incubations were terminated by rapid vacuum filtration through prewetted 96-well GF/C filter plates using a PerkinElmer Filtermate harvester. Filters were subsequently washed 12 times with ice-cold wash buffer (50 mM Tris–HCl, pH 8.0, 10 mM MgCl2, 1 mM EDTA). The plates were dried at 55 °C, and MicroscintTM-20 cocktail (PerkinElmer) was added subsequently. After 3 h, the filter-bound radioactivity was determined using a Tri-Carb 2810TR Liquid Scintillation Analyzer (PerkinElmer).
[…]. Single point displacement values shown are mean percentages of two individual experiments performed in duplicate. All pKi values shown are mean values ± SEM of three individual experiments performed in duplicate. Statistical analysis was performed using a one-way ANOVA test with multiple comparisons (****p < 0.0001).

hA3AR [2] = target: T3, hA3AR; assay: Single-point radioligand displacement, [3H]PSB-11; conditions: 1 μM probe; CHO cell membranes; co-incubated with radioligand 30 min at 25 °C; mean of two experiments
Description: as §1, §2

T2 sequence (P29274 whole entry): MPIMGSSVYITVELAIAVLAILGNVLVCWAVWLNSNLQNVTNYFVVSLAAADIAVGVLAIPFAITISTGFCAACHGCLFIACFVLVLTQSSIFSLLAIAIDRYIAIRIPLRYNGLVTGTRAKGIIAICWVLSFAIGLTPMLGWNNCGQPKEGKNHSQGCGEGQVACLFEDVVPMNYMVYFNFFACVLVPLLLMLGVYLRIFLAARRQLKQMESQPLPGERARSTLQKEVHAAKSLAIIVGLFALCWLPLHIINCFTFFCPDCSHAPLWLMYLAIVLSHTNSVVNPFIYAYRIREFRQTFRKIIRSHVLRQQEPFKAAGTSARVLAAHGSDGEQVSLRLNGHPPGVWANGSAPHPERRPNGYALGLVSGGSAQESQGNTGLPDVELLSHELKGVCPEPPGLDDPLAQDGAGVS

SMILES: C#CCN(CCCn1c(=O)n(CCC)c(=O)c2c1nc1cc(OC)ccn12)C(=O)c1ccc(S(=O)(=O)F)cc1 [compound 5, 4-((3-(8-Methoxy-2,4-dioxo-3-propyl-3,4-dihydropyrido[2,1-f]purin-1(2H)-yl)propyl)(prop-2-yn-1-yl)carbamoyl)benzenesulfonyl fluoride]
- % specific [3H]PSB-603 displacement, hA2BAR (human A2BAR (hA2BAR)): 10%
- % specific [3H]ZM241385 displacement, hA2AAR (human A2AAR (hA2AAR)): 0%
- apparent pKi (pre-0 h) (hA3AR [1]): 7.55 ± 0.01
- apparent pKi (pre-4 h) (hA3AR [1]): 8.52 ± 0.05 ^d
- fold change, ratio Ki(0 h)/Ki(4 h) (hA3AR [1]): 9.5 ± 1.0
- % specific [3H]PSB-11 displacement, hA3AR (hA3AR [2]): 95%

SMILES: C#CCOc1ccn2c(c1)nc1c2c(=O)n(CCC)c(=O)n1CCCNC(=O)c1ccc(S(=O)(=O)F)cc1 [compound 9, 4-((3-(2,4-Dioxo-8-(prop-2-yn-1-yloxy)-3-propyl-3,4-dihydropyrido[2,1-f]purin-1(2H)-yl)propyl)carbamoyl)benzenesulfonyl fluoride]
- % specific [3H]PSB-603 displacement, hA2BAR (human A2BAR (hA2BAR)): 1%
- % specific [3H]ZM241385 displacement, hA2AAR (human A2AAR (hA2AAR)): 7%
- apparent pKi (pre-0 h) (hA3AR [1]): 7.27 ± 0.07
- apparent pKi (pre-4 h) (hA3AR [1]): 8.40 ± 0.03 ^d
- fold change, ratio Ki(0 h)/Ki(4 h) (hA3AR [1]): 13.5 ± 1.2
- % specific [3H]PSB-11 displacement, hA3AR (hA3AR [2]): 95%
